IC50 data for 22 compounds are collected here from US12421191B2, “3-hydroxyoxindole derivatives as CRHR2 antagonist” (RaQualia Pharma Inc., priority 2020, dated 2025).

Usually IC50 stands for the concentration needed to halve the response being measured.

The target of this assay is T1, human CRHR2-alpha (Homo sapiens, UniProt Q13324).
T1 construct: host or cells: CHO-K1
T1 sequence (Q13324 1-411): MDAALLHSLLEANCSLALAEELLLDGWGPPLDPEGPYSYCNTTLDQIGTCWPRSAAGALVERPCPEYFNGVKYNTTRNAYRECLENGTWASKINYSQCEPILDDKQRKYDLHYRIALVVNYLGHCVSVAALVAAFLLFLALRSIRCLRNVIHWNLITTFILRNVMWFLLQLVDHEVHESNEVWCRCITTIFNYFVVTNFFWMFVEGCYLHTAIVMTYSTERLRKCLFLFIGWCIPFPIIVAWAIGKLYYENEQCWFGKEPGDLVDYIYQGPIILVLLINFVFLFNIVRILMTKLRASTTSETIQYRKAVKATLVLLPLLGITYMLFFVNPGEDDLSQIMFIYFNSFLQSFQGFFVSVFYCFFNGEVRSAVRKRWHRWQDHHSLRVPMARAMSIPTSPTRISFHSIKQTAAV
Briefly: cAMP functional assay for human CRHR2 (LANCE Ultra TR-FRET). Format: cell-based. The conditions noted are these: inhibition of cAMP production in CHO-K1 cells stably expressing human CRHR2-alpha, EC90 of human urocortin2 as agonist; read-out: IC50 against CRHR2. The method, then: cAMP functional assay for human CRHR2 The ability of the compounds of this invention to inhibit either CRHR2 is assessed by 3′,5′-cyclic adenosine monophosphate (cAMP) production in cells using the LANCE Ultra cAMP assay kit (ParkinElmer), which are designed based on the homogeneous time-resolved fluorescence resonance energy transfer (TR-FRET) immunoassay.
CHO-K1 (Chinese hamster ovary) cells stably expressing human CRHR2-alpha (DiscoveRX, Cat. 95-0048C2) are grown in HAM's F12 media supplemented with 10% fetal bovine serum (FBS), 100 units/mL penicillin G, 100 microg/mL hygromycin and 0.5 microg/mL geneticin at 37° C. in 5% CO2 humidified incubator to 80% confluence. After 7 hours starvation treatment in culture media containing 0.1% FBS, the cells are washed with Hanks balanced salt solution (HBSS) and cryopreserved.
For cAMP assay, frozen cells are thawed and washed with HBSS, followed by resuspending cells in assay buffer (HBSS containing 0.1% bovine serum albumin, 0.5 mM isobutylmethylxanthine and 5 mM Hepes, pH 7.4) at the appropriate concentration for the assay. The cell suspensions are plated on 384-well microplates (Greiner Bio-One) at a density of 4,000 cells per well. After preincubating the cells with various concentrations of the compounds for 30 min at 25° C., an assay buffer containing EC90 concentration of agonist is added and the cells are incubated for 30 min at 25° C. Human urocortin2 (Peptide Institute) is used as agonists for CRHR2. For the termination of assay, europium-labeled cAMP tracer and ULight (registered trademark) dye labeled cAMP antibodies, both prepared with Lance-Ultra cAMP detection reagent (PerkinElmer) are added in the plate and incubate for 60 min at 25° C. After incubation, TR-FRET signal is detected by EnVision plate reader (PerkinElmer). The IC50 values for compounds are calculated from dose-response curves by fitting the percent inhibition using XLfit (ID Business Solutions).
In the case of `COc1ccc(F)c(C2(O)C(=O)N(C[C@H]3CC[C@H](NC(=O)c4cc(Cl)cnc4C(F)F)CC3)c3ccccc32)c1` (stereo partly shown) [Example 74, 5-chloro-2-(difluoromethyl)-N-((1r,4r)-4-((3-(2-fluoro-5-methoxyphenyl)-3-hydroxy-2-oxoindolin-1-yl)methyl)cyclohexyl) nicotinamide], the IC50 was less than 200 nM.
Then `O=C(N[C@H]1CC[C@H](CN2C(=O)C(O)(c3ccc(F)cc3)c3ccccc32)CC1)c1cc(Cl)cnc1C(F)F` (stereo partly shown) [Example 17, 5-chloro-2-(difluoromethyl)-N-((1r,4r)-4-((3-(4-fluorophenyl)-3-hydroxy-2-oxoindolin-1-yl)methyl)cyclohexyl) nicotinamide], with less than 200 nM; and `O=C(N[C@H]1CC[C@H](CN2C(=O)C(O)(c3ccc(Cl)cn3)c3ccc(F)cc32)CC1)c1cc(Cl)cnc1C(F)F` (stereo partly shown) [Example 119, 5-chloro-N-((1r,4r)-4-((3-(5-chloropyridin-2-yl)-6-fluoro-3-hydroxy-2-oxoindolin-1-yl)methyl)cyclohexyl)-2-(difluoromethyl)nicotinamide], with less than 200 nM; and `Cc1ccc2c(c1)N(C[C@H]1CC[C@H](NC(=O)c3cc(Cl)cnc3C(F)F)CC1)C(=O)C2(O)c1ccccc1F` (stereo partly shown) [Example 148, 5-chloro-2-(difluoromethyl)-N-((1r,4r)-4-((3-(2-fluorophenyl)-3-hydroxy-6-methyl-2-oxoindolin-1-yl)methyl)cyclohexyl) nicotinamide], with less than 200 nM.
Consider `O=C(N[C@H]1CC[C@H](CN2C(=O)C(O)(c3cc(F)ccc3F)c3ccc(F)cc32)CC1)c1cc(Cl)cnc1C(F)F` (stereo partly shown) [Example 118, 5-chloro-2-(difluoromethyl)-N-((1r,4r)-4-((3-(2,5-difluorophenyl)-6-fluoro-3-hydroxy-2-oxoindolin-1-yl)methyl)cyclohexyl)nicotinamide], for which the IC50 is less than 200 nM.
Turning to `O=C(N[C@H]1CC[C@H](CN2C(=O)C(O)(c3ccc(Cl)cn3)c3ccccc32)CC1)c1cc(Cl)cnc1C(F)F` (stereo partly shown) [Example 13, 5-chloro-N-((1r,4r)-4-((3-(5-chloropyridin-2-yl)-3-hydroxy-2-oxoindolin-1-yl)methyl)cyclohexyl)-2-(difluoromethyl)nicotinamide], the IC50 is less than 200 nM.
As to `COc1cc(C2(O)C(=O)N(C[C@H]3CC[C@H](NC(=O)c4cc(Cl)cnc4C(F)F)CC3)c3ccc(F)cc32)c(F)cn1` (stereo partly shown) [Example 124, 5-chloro-2-(difluoromethyl)-N-((1r,4r)-4-((5-fluoro-3-(5-fluoro-2-methoxypyridin-4-yl)-3-hydroxy-2-oxoindolin-1-yl)methyl)cyclohexyl) nicotinamide], the half-maximal inhibitory concentration (IC50) was less than 200 nM.
Then `COc1cccc(C2(O)C(=O)N(C[C@H]3CC[C@H](NC(=O)c4cc(Cl)cnc4C(F)F)CC3)c3ccccc32)c1` (stereo partly shown) [Example 47, 5-chloro-2-(difluoromethyl)-N-((1r,4r)-4-((3-hydroxy-3-(3-methoxyphenyl)-2-oxoindolin-1-yl)methyl)cyclohexyl) nicotinamide], with less than 200 nM.
Take `O=C(N[C@H]1CC[C@H](CN2C(=O)C(O)(c3cccc(Cl)c3F)c3ccccc32)CC1)c1cc(Cl)cnc1C(F)F` (stereo partly shown) [Example 67, 5-chloro-N-((1r,4r)-4-((3-(3-chloro-2-fluorophenyl)-3-hydroxy-2-oxoindolin-1-yl)methyl)cyclohexyl)-2-(difluoromethyl)nicotinamide]: the IC50 is less than 200 nM.
With `Cc1ncc(Cl)cc1C(=O)N[C@H]1CC[C@H](CN2C(=O)C(O)(c3cccc(F)c3F)c3ccc(F)cc32)CC1` (stereo partly shown) [Example 143, 5-chloro-N-((1r,4r)-4-((3-(2,3-difluorophenyl)-6-fluoro-3-hydroxy-2-oxoindolin-1-yl)methyl)cyclohexyl)-2-methylnicotinamide], the IC50 is less than 200 nM.
Then `O=C(N[C@H]1CC[C@H](CN2C(=O)C(O)(c3cccc(F)c3F)c3ccc(F)cc32)CC1)c1cc(Cl)cnc1C(F)F` (stereo partly shown) [Example 116, 5-chloro-2-(difluoromethyl)-N-((1r,4r)-4-((3-(2,3-difluorophenyl)-6-fluoro-3-hydroxy-2-oxoindolin-1-yl)methyl)cyclohexyl) nicotinamide], with less than 200 nM.
Turning to `COc1ccc(F)c(C2(O)C(=O)N(C[C@H]3CC[C@H](NC(=O)c4cc(Cl)cnc4C(F)F)CC3)c3cc(F)ccc32)c1` (stereo partly shown) [Example 156, 5-chloro-2-(difluoromethyl)-N-((1r,4r)-4-((6-fluoro-3-(2-fluoro-5-methoxyphenyl)-3-hydroxy-2-oxoindolin-1-yl)methyl)cyclohexyl) nicotinamide], the concentration for half-maximal inhibition (IC50) was less than 200 nM.
Then `O=C(N[C@H]1CC[C@H](CN2C(=O)C(O)(c3ccccc3F)c3c(F)cc(F)cc32)CC1)c1cc(Cl)cnc1C(F)F` (stereo partly shown) [Example 177, 5-chloro-N-((1r,4r)-4-((4,6-difluoro-3-(2-fluorophenyl)-3-hydroxy-2-oxoindolin-1-yl)methyl)cyclohexyl)-2-(difluoromethyl)nicotinamide], with less than 200 nM; and `COc1ccc(F)c(C2(O)C(=O)N(C[C@H]3CC[C@H](NC(=O)c4cc(Cl)cnc4C(F)F)CC3)c3cccc(F)c32)c1` (stereo partly shown) [Example 189, 5-chloro-2-(difluoromethyl)-N-((1r,4r)-4-((4-fluoro-3-(2-fluoro-5-methoxyphenyl)-3-hydroxy-2-oxoindolin-1-yl)methyl)cyclohexyl) nicotinamide], with less than 200 nM; and `Cc1cc(C2(O)C(=O)N(C[C@H]3CC[C@H](NC(=O)c4cc(Cl)cnc4C(F)F)CC3)c3ccccc32)cs1` (stereo partly shown) [Example 130, 5-chloro-2-(difluoromethyl)-N-((1r,4r)-4-((3-hydroxy-3-(5-methylthiophen-3-yl)-2-oxoindolin-1-yl)methyl)cyclohexyl) nicotinamide], with less than 200 nM.
Turning to `O=C(N[C@H]1CC[C@H](CN2C(=O)C(O)(c3ccncc3F)c3ccccc32)CC1)c1cc(Cl)cnc1C(F)F` (stereo partly shown) [Example 10, 5-chloro-2-(difluoromethyl)-N-((1r,4r)-4-((3-(3-fluoropyridin-4-yl)-3-hydroxy-2-oxoindolin-1-yl)methyl)cyclohexyl) nicotinamide], the IC50 was less than 200 nM.
Then `COc1ccc(C2(O)C(=O)N(C[C@H]3CC[C@H](NC(=O)c4cc(Cl)cnc4C(F)F)CC3)c3ccccc32)cc1` (stereo partly shown) [Example 2, 5-chloro-2-(difluoromethyl)-N-((1r,4r)-4-((3-hydroxy-3-(4-methoxyphenyl)-2-oxoindolin-1-yl)methyl)cyclohexyl) nicotinamide], with less than 200 nM; and `COc1ccc(F)c(C2(O)C(=O)N(C[C@H]3CC[C@H](NC(=O)c4cc(Cl)cnc4C(F)(F)F)CC3)c3ccccc32)c1` (stereo partly shown) [Example 185, 5-chloro-N-((1r,4r)-4-((3-(2-fluoro-5-methoxyphenyl)-3-hydroxy-2-oxoindolin-1-yl)methyl)cyclohexyl)-2-(trifluoromethyl)nicotinamide], with less than 200 nM; and `O=C(N[C@H]1CC[C@H](CN2C(=O)C(O)(c3cc(F)cc(F)c3F)c3ccccc32)CC1)c1cc(Cl)cnc1C(F)F` (stereo partly shown) [Example 133, 5-chloro-2-(difluoromethyl)-N-((1r,4r)-4-((3-hydroxy-2-oxo-3-(2,3,5-trifluorophenyl)indolin-1-yl)methyl)cyclohexyl) nicotinamide], with less than 200 nM.
Then `O=C(N[C@H]1CC[C@H](CN2C(=O)C(O)(c3cccc(Cl)c3F)c3c(F)cccc32)CC1)c1cc(Cl)cnc1C(F)F` (stereo partly shown) [Example 190, 5-chloro-N-((1r,4r)-4-((3-(3-chloro-2-fluorophenyl)-4-fluoro-3-hydroxy-2-oxoindolin-1-yl)methyl)cyclohexyl)-2-(difluoromethyl)nicotinamide], with less than 200 nM; and `O=C(N[C@H]1CC[C@H](CN2C(=O)C(O)(c3ccccc3F)c3cccc(F)c32)CC1)c1cc(Cl)cnc1C(F)F` (mixture of isomers) [Example 82, 5-chloro-2-(difluoromethyl)-N-((1r,4r)-4-((7-fluoro-3-(2-fluorophenyl)-3-hydroxy-2-oxoindolin-1-yl)methyl)cyclohexyl) nicotinamide], with less than 200 nM.
Then `O=C(N[C@H]1CC[C@H](CN2C(=O)C(O)(c3ccc(F)cn3)c3ccccc32)CC1)c1cc(Cl)cnc1C(F)F` (stereo partly shown) [Example 18, 5-chloro-2-(difluoromethyl)-N-((1r,4r)-4-((3-(5-fluoropyridin-2-yl)-3-hydroxy-2-oxoindolin-1-yl)methyl)cyclohexyl) nicotinamide], with less than 200 nM.
